Results taken from ChEMBL document CHEMBL4043090 (Bioorg Med Chem, 2017).

Columns and labels:
[1] = Therapeutic index, ratio of TC50 for human MAGI-CCR5 cells to IC50 for HIV-1 Bal infected in MAGI-CCR5 cells
[2] = tested on: Human immunodeficiency virus 1; assay: Antiviral activity against HIV-1 Bal infected in human MAGI-CCR5 cells assessed as reduction in viral infection after 48 hrs by fluorescence based beta-galactosidase reporter gene assay; format: functional, cell-based; settings: for IC50 / IC90: Human immunodeficiency virus 1, Bal, MAGI-CCR5, 48 h
[3] = Therapeutic index, ratio of TC50 for human PBMC to IC50 for HIV-1 Bal infected in human PBMC
[4] = Cytotoxicity against human MAGI-CCR5 cells assessed as reduction in cell viability after 48 hrs by MTS assay; format: cell-based; settings: read-out: TC50
[5] = Cytotoxicity against human PBMC assessed as reduction in cell viability by MTS assay; format: cell-based; settings: read-out: TC50 (the source's name)
PBMC = assay: Antiviral activity against HIV-1 Bal infected in human PBMC by MTS assay; format: functional, cell-based

Row | SMILES | TI [1] | Activity [2] | IC50 [2] [µM] | IC90 [2] [µM] | TI [3] | CC50 at 48 h [4] [µM] | CC50 [5] [µM] | IC50 (PBMC) [µM] | IC90 (PBMC) [µM]
1 | CC1=C(c2nc(-c3cccc(C#N)c3)cs2)C(c2cccc(O)c2)NC(=O)N1 (configuration not stated) | 6 | Dose-dependent effect | 8.7 | 38.1 | 15 | 51.8 | 74 | 5 | 15.1
2 | COc1cncc(C2NC(=O)NC(C)=C2c2nc(-c3ccc(C#N)cc3)cs2)c1 (configuration not stated) | 9.6 | – | 10.4 | > 100 | – | > 100 | – | – | –
3 | CC1=C(c2nc(-c3ccc(C#N)cc3)cs2)C(c2cccc(OC(F)(F)F)c2)NC(=O)N1 (configuration not stated) | 42 | Dose-dependent effect | 2.4 | 69.8 | 2.4 | > 100 | > 100 | 41.2 | > 100
4 | CC1=C(c2nc(-c3ccc(C#N)cc3)cs2)C(c2cccnc2Cl)NC(=O)N1 (configuration not stated) | 46 | Dose-dependent effect | 2.2 | 85.5 | 67 | > 100 | > 100 | 1.5 | 8.8
5 | CC1=C(c2nc(-c3ccc(C#N)cc3)cs2)C(c2ccnc(Cl)c2)NC(=O)N1 (configuration not stated) | 31 | Dose-dependent effect | 3.2 | > 100 | 23 | > 100 | > 100 | 4.4 | 44.5
6 | CC1=C(c2nc(-c3ccc(C#N)cc3)cs2)C(c2ccc(Oc3ccccc3)nc2)NC(=O)N1 (configuration not stated) | 156 | Dose-dependent effect | 0.64 | 2.8 | 56 | > 100 | 67.5 | 1.2 | 3.4
7 | CC1=C(c2nc(-c3ccc(C#N)cc3)cs2)C(c2cc3ccccc3[nH]2)NC(=O)N1 (configuration not stated) | 24 | Dose-dependent effect | 2.1 | 10.4 | 20 | 50.5 | 69.8 | 3.5 | 10.8
8 | CC1=C(c2nc(-c3ccc(Cl)cc3)cs2)C(c2cccc(O)c2)NC(=O)N1 (configuration not stated) | 29 | Dose-dependent effect | 1.9 | 11 | 50 | 55 | 65 | 1.3 | 4.1
9 | COc1ccc(-c2csc(C3=C(C)NC(=O)NC3c3cccc(O)c3)n2)cc1 (configuration not stated) | 1.5 | Dose-dependent effect | 66 | > 100 | 3 | > 100 | 91 | 30 | 78
10 | CC1=C(c2nc(-c3ccc(C#N)cc3)cs2)C(c2ccc(OCc3ccccc3)cc2)NC(=O)N1 (configuration not stated) | 77 | Dose-dependent effect | 0.13 | 0.75 | 476 | > 10 | > 100 | 0.21 | 0.6
11 | CC1=C(c2nc(-c3ccccc3)cs2)C(c2cccc(O)c2)NC(=O)N1 (configuration not stated) | 1.3 | Dose-dependent effect | 79 | > 100 | 2 | > 100 | 76 | 37 | 81
12 | CC1=C(c2nc(-c3cccs3)cs2)C(c2cccc(O)c2)NC(=O)N1 (configuration not stated) | 2 | – | 49 | > 100 | – | > 100 | – | – | –
13 | CC1=C(c2nc(-c3ccc(C#N)cc3)cs2)C(c2ccncc2F)NC(=O)N1 (configuration not stated) | 1.6 | – | 63.4 | > 100 | – | > 100 | – | – | –
